Reference: publication PMC12055592, “Post-symptomatic NLRP3 inhibition rescues cognitive impairment and mitigates amyloid and tau driven neurodegeneration” (Npj Dementia, 2025)

What was measured:
human NLRP3 = human NLRP3 (Homo sapiens, UniProt Q96P20); assay: SPR analysis of interaction with human NLRP3; type: binding
Experimental: VEN-02XX was profiled in vitro to confirm specific binding to human NLRP3 as well as activity in various cellular assays.
The human NLRP3 protein was immobilized onto a nickel-NTA surface (Xantec NiHC1500M). Assay was run in 25 mM HEPES pH 7.5, 150 mM NaCl, 5 mM MgCl2, 0.5 mM TCEP, 0.5 mM ADP, 0.05% Tween-20 and 1% DMSO at 25 °C. Single-cycle method was used, and compound was injected over surface with a contact time of 120 s on and 600 s off by Biocore 8 K machine (Cytiva). A 5-points solvent correction curve was run pre and post run to correct for refractive index of DMSO. Data was then analyzed using the Biacore evaluation software to report binding kinetic parameters.

5XFAD/Rubicon KO mice [1] = assay: Sucrose preference test in 5XFAD/Rubicon KO mice; type: in vivo, mouse
Experimental: (§1) 5XFAD/Rubicon KO mice received vehicle (0.5% w/v methylcellulose/0.1% w/v Tween® 80 in water) or VEN-02XX (0.01, 1, or 20 mg/kg) every day by oral gastric gavage for 9 weeks.
Basal preference to sucrose was first assessed on all enrolled mice. Individually housed mice were acclimated to the testing room for 48 h and to the two-bottle setup, where both bottles contained water, for 3 days. A 2% sucrose solution replaced the water in one bottle, and water consumption was measured for 4 consecutive days, while rotating the position of the sucrose-containing bottle. At the end of the testing period, both bottles were measured, and sucrose preference was calculated by dividing the intake from the sucrose bottle by the intake from both bottles, expressed as the percentage of sucrose preference. Preference to sucrose was re-assessed at 6- and 9-weeks following dosing with VEN-02XX. The test was performed as described above, with one bottle switched for 3% sucrose water. As before, bottles were rotated daily to reduce bias and leakage concerns, and the consumption was monitored for 4 days.

5XFAD/Rubicon KO mice [2] = assay: Spontaneous alternation (Y-maze) in 5XFAD/Rubicon KO mice; type: in vivo, mouse
Experimental: as §1
Spontaneous alternation was measured in a standard Y-maze setup. Mice were acclimated to the testing room for 48 h. In each 5-min trial, percent spontaneous alternation was measured as […][32]. Any mouse with less than 5 arm entries during the 5 min trial was excluded from the analysis.

5XFAD/Rubicon KO mice [3] = assay: Novel object recognition in 5XFAD/Rubicon KO mice; type: in vivo, mouse
Experimental: as §1
Mice were acclimated to the testing room for 48 h. For habituation, mice were allowed to explore an open-field box (50 cm × 50 cm) for 15 min per day over the course of 48 h. Mice were then exposed to two identical objects for 10 min on the day of testing. One hour later, a novel object was introduced, and mice were allowed to explore for 5 min during the test phase. The time spent exploring each object was quantified using AnyMaze video tracking software using the manufacturer define NOR protocol. Novel object preference (%) and the discrimination index (time with novel)/(novel + familiar) * 100) were calculated for each mouse using AnyMaze software.

5XFAD/Rubicon KO mice [4] = assay: Brain immunohistochemistry (Iba1, Aβ, pTau S396, NeuN) in 5XFAD/Rubicon KO mice; type: in vivo, mouse; settings: 9 weeks PO QD
Experimental: as §1
Following post-mortem collection, the brain was placed in a mouse brain matrix and sliced along the sagittal suture to separate the hemispheres. The left hemisphere was immediately processed for downstream biochemical analyses by snap freezing in liquid nitrogen. The right half was drop-fixed in 4% PFA in PBS for 24 h and then washed 5x in fresh PBS before being submerged in 30% sucrose cryoprotectant solution for 24 h. After 24 h, brains were frozen in cryomolds in a 2:1 mixture of 30% sucrose and optimal cutting temperature compound (OCT), cryomolds were stored at −80 °C until use. For slide preparation, brains were allowed to acclimatize to −20 °C in a Thermo Shandon cryotome. After equilibration at −20 °C, tissue was cryostat sectioned at 25 μm (cortex) or 40 μm (free floating sections for hippocampus). Steam-mediated antigen retrieval was performed using 1x citrate buffer. Sections were rinsed in PBS, blocked in 3% bovine serum albumin/0.2% Triton X-100/PBS for 1 h, and incubated with primary antibodies in blocking buffer overnight at 4 °C (1:200 goat anti-Iba1 [Novus Biologicals, Centennial, CO], 1:500 mouse anti-Aβ 82E1 MOAB [Immuno-Biological Laboratories, Inc., Spring Lake Park, MN], 1:200 rabbit anti-pTau S396 [Cell Signaling, Danvers, MA], 1:200 mouse anti-NeuN [Cell Signaling]). Sections were incubated with appropriate secondary antibodies (Jackson ImmunoResearch, West Grove, PA) for 1 h at room temperature. For the complete list of antibodies please reference Supplementary Table 2. ProLong™ Diamond or ProLong™ Gold Antifade Mountant with or without 4’,6-diamidino-2-phenylindole (DAPI) counterstain (Thermo Fisher Scientific, Waltham, MA). Slides were imaged on a Zeiss Axio-observer A1 inverted microscope with an Andor iXon EMCCD camera and X-Cite LED fluorescence unit. Image analysis was performed using Fiji and 3DMorph AnalyzeSkeleton for microglial analyses.

5XFAD/Rubicon KO mice [5] = assay: Brain cytokine/chemokine quantification (ECLIA) in 5XFAD/Rubicon KO mice; type: in vivo, mouse; settings: 9 weeks PO QD
Experimental: as §1
Brain tissue was homogenized in PBS, pH 7.4 with 1X Halt™ protease inhibitor cocktail (Thermo Fisher Scientific, Waltham, MA) using a Bead Ruptor homogenizer (Omni International, Kennesaw, GA). Homogenates were clarified by centrifugation at 10,000 × g for 10 min. The crude homogenate was used for quantification of VEN-02XX levels, as described below. Total protein concentrations were quantified from clarified supernatants in a Pierce BCA protein assay (Thermo Fisher Scientific). Cytokine and chemokine levels were quantified using an electrochemiluminescence immunoassay (ECLIA) for IL-1β (total), TNFα, IL-6 and IP-10 (U-PLEX Custom Biomarker Group 1 (mouse) assay, Meso Scale Discovery, Rockville, MD) following the manufacturer’s instructions. Neurofilament light chain plasma levels were quantified using an enzyme-linked immunosorbent assay (ELISA) from Uman Diagnostics (CAT#: 20-8002) following the manufacturer’s instructions.

[6] = 9 weeks, 0.01, 1, 20 mg/kg PO QD vs vehicle

Chain of human NLRP3 (Q96P20 whole entry): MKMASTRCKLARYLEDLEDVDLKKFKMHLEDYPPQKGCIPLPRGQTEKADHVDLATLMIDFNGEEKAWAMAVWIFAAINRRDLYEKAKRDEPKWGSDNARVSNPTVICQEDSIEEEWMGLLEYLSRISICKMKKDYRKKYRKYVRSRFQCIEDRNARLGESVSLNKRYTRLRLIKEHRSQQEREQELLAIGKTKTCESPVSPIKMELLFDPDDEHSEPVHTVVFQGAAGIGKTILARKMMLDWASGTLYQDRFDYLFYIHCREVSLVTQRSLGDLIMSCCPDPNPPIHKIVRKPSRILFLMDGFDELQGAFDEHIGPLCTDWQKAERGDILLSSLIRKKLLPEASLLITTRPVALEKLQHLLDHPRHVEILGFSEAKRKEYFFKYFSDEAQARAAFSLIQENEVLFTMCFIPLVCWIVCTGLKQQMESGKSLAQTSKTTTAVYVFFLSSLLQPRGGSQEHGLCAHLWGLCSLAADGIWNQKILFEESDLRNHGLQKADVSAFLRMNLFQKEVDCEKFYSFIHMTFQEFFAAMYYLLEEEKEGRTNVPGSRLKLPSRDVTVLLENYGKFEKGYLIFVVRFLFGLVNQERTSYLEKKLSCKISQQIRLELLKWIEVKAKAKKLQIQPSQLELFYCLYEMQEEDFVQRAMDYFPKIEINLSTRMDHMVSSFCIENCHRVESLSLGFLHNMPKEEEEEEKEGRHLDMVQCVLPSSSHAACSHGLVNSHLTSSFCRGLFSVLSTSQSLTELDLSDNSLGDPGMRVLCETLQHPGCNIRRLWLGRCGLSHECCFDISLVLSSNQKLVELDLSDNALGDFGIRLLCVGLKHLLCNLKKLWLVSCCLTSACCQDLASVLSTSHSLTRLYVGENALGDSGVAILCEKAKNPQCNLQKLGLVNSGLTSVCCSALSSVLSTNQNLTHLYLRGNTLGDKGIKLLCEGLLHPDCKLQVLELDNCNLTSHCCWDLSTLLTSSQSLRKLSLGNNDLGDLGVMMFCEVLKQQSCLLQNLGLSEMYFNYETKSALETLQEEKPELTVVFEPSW

CC(C)(O)CNc1nnc(-c2ccc(Cl)cc2C(F)(F)F)c2ccncc12 [VEN-02XX]
Kd (human NLRP3; human NLRP3): 93.3 nM
residence time (human NLRP3; human NLRP3, read-out: residence time (1/kd) (converted)): 12.9 min
kon (human NLRP3; pH 7.5, 1:1 binding, read-out: ka): 13800 M⁻¹ s⁻¹
water consumption (5XFAD/Rubicon KO mice [1]; 6 and 9 weeks, sucrose preference test): no changes in water consumption
sucrose preference (anhedonia) (5XFAD/Rubicon KO mice [1]; 6 weeks post-dose initiation, 20 mg/kg PO QD): significant improvement
sucrose preference (anhedonia) (5XFAD/Rubicon KO mice [1]; 6 weeks post-dose initiation, lower doses (0.01, 1 mg/kg) PO QD): trending reversal in the pre-dosing anhedonia
sucrose preference (anhedonia) (5XFAD/Rubicon KO mice [1]; 9 weeks, 1 mg/kg and 20 mg/kg PO QD, dose-dependent): significant improvements
spontaneous alternation (Y-maze) (5XFAD/Rubicon KO mice [2]; [6]): striking dose-dependent improvement
spontaneous alternation (Y-maze), learning and memory (5XFAD/Rubicon KO mice [2]; 9 weeks, 20 mg/kg PO QD): restoration of learning and memory to near wild type control levels for most animals
novel object recognition (5XFAD/Rubicon KO mice [3]; [6]): striking dose-dependent improvement
novel object recognition, learning and memory (5XFAD/Rubicon KO mice [3]; 9 weeks, 20 mg/kg PO QD): restoration of learning and memory to near wild type control levels for most animals
microglial branch length (5XFAD/Rubicon KO mice [4]; 20 mg/kg, 3DMorph): significant increases in microglial branch length
pTau S396 signal (5XFAD/Rubicon KO mice [4]; 20 mg/kg, cortex and CA3 region of hippocampus): almost complete suppression in pTau signal
microglia/plaque association (co-localization of Iba1 with amyloid) (5XFAD/Rubicon KO mice [4]): robust disassociation of the microglia from the Aβ plaques
microglial soma volume (5XFAD/Rubicon KO mice [4]; 3DMorph): commensurate decreases in soma volume in a dose-dependent and statistically significant manner
gross microglial morphology (5XFAD/Rubicon KO mice [4]; Iba1 staining): transition from the disease-associated active ameboid morphology towards a homeostatic ramified morphology
CA3 and dentate gyrus thickness (5XFAD/Rubicon KO mice [4]; NeuN stained sections): significantly increased both CA3 and dentate gyrus (DG) thickness
phosphorylated tau (pTau S396) mean area (5XFAD/Rubicon KO mice [4]; cortex and CA3 region of hippocampus): dose-dependent and statistically significant reduction in phosphorylated tau
Iba1 mean area (microglial activation) (5XFAD/Rubicon KO mice [4]; cortex and hippocampus): reduced the cumulative signal of the key microglial activation marker, Iba1, in both the cortex and hippocampus in a dose-dependent and statistically significant manner
NeuN+ cell count (neuronal numbers) (5XFAD/Rubicon KO mice [4]; cortex and hippocampus): robust dose-dependent and statistically significant neuroprotective effect
Aβ plaque area/size (5XFAD/Rubicon KO mice [4]; cortex and hippocampus, especially at higher doses): significant reduction in Aβ plaque area/size in both the cortex and hippocampus in a dose-dependent manner
Aβ plaque burden (cumulative plaque #) (5XFAD/Rubicon KO mice [4]; cortex and hippocampus, did not reach statistical significance): trending reduction in Aβ plaque burden
hippocampal IL-1β (total), IL-6, IP-10 and TNFα levels (5XFAD/Rubicon KO mice [5]; 20 mg/kg, levels comparable to WT, lack of statistical significance): notable reduction in all measured inflammatory markers
hippocampal IL-1β (5XFAD/Rubicon KO mice [5]): almost complete ablation of IL-1β within the hippocampus
